Patent US20020193425A1, “Cancer chemopreventative compounds and compositions and methods of treating cancers” (priority 2001, published 2002)
≈ marks a conversion by molar mass, not a printed value.

Tests used:
c-Myc oncoprotein, HL-60 = assay: c-Myc oncoprotein expression, western blotting; type: cell-based, human
Procedure: (§1) The expression of c-Myc was assessed by immunoblots as previously described. In brief, cells (10^6) were treated and harvested at various time intervals, and whole-cell pellets were lysed with detergent lysis buffer (1 ml/10^7 cells, 50 mM Tris-HCl buffer, pH 8.0, 150 mM NaCl, 1 mM DTT, 0.5 mM EDTA, 1% Nonidet® P40, 0.5% sodium deoxycholate, 0.1% sodium dodecylsulfate, 100 μg/ml phenylmethylsulfonyl fluoride, 1 μg/ml aprotinin, 2 μg/ml leupeptin and 100 μM sodium vanadate) to obtain protein lysates. Protein concentrations were quantified using a bicinchoninic acid kit. Since c-Myc is a labile protein, cell lysates were not frozen, but stored at 4° C., until all protein lysates were prepared for a particular cell line, and then western blots were performed immediately. Total protein ([…]) was separated by 10% SDS-PAGE, electroblotted to PVDF membranes, and blocked overnight with 5% nonfat dry milk. The membrane was incubated with a solution of the primary antibody (2.5 μg/ml), prepared in 1% blocking solution, for 2 h at room temperature, washed three-times for 15 min with PBS-T (PBS with 0.1%, v/v, Tween 20), and incubated with a 1:2500 dilution of horseradish peroxidase-conjugated secondary antibody for 30 min at 37° C. Blots were again washed three-times for 10 min each in PBS-T and developed by enhanced chemiluminescence (Amersham). Membranes were exposed to Kodak Biomax film and the resulting film was analyzed using Kodak 1D Image Analysis software. Membranes were then stripped and reprobed for the quantification of bactin.
(§2) Cells were treated with solvent (0.1% v/v DMSO, control), brusatol (25 ng/ml) or bruceantin (10 ng/ml) for 4 or 24 h, then analyzed by western blotting. Membranes were probed for c-Myc, and then stripped and probed for β-actin as an internal control.
(§3) Cells were treated with brusatol (25 ng/ml) or bruceantin (10 ng/ml) for 4 or 24 h, and then analyzed for c-Myc and β-actin expression using western blotting techniques. Results are expressed as percentage of c-Myc oncoprotein of control (0.1%, v/v, DMSO treated cells) values. Results were normalized relative to β-actin.

[1] = test system: DMBA-induced preneoplastic lesion formation in mouse mammary organ culture; assay: Inhibition of DMBA-induced preneoplastic lesion formation in mouse mammary organ culture (MMOC); type: cell-based; conditions: Mus musculus; quassinoid (2 μM); in comparison with a DMBA control
Procedure: The identification of potential inhibitors of DMBA-induced preneoplastic lesion formation in mammary organ culture has been described previously. Briefly, four-week old BALB/c female mice (Charles River) were pretreated for nine days with 1 μg estradiol and 1 mg progesterone. The thoracic pair of mammary glands was dissected on silk and incubated with growth-promoting hormones in the presence of test compounds (2 μM) for 10 days. DMBA ([…]) was included in the medium (containing […]) for 24 hours on the third day of culture to induce preneoplastic mammary lesions. Following 10 days of growth promoting phase, all hormones except insulin were withdrawn and the glands were allowed to regress to lobuloalveolar structures during a 14-day incubation period. Glands then were fixed in 10% buffered formalin and stained with alum carmine. Incidence of lesion formation (percentage of glands per group with mammary lesions) was recorded, and percent inhibition was calculated by comparison with the DMBA control group that was not treated with test sample. Active samples induce 60% inhibition, based on historical controls.

[2] = test system: c-Myc oncoprotein, SUPB13; assay: c-Myc oncoprotein expression, western blotting; type: cell-based
Procedure: as §1, §2, §3

c-Myc oncoprotein, U937 = assay: c-Myc oncoprotein expression, western blotting; type: cell-based
Procedure: as §1, §2, §3

[3] = test system: c-Myc oncoprotein, RS4;11; assay: c-Myc oncoprotein expression, western blotting; type: cell-based
Procedure: as §1, §2, §3

c-Myc oncoprotein, BV173 = assay: c-Myc oncoprotein expression, western blotting; type: cell-based
Procedure: as §1, §2, §3

[4] = test system: c-Myc oncoprotein, Kasumi-1; assay: c-Myc oncoprotein expression, western blotting; type: cell-based
Procedure: as §1, §2, §3

c-Myc oncoprotein, Reh = assay: c-Myc oncoprotein expression, western blotting; type: cell-based
Procedure: as §1, §2, §3

c-Myc oncoprotein, NB4 = assay: c-Myc oncoprotein expression, western blotting; type: cell-based
Procedure: as §1, §2, §3

c-Myc oncoprotein, Daudi = assay: c-Myc oncoprotein expression, western blotting; type: cell-based
Procedure: as §1, §2, §3

c-Myc oncoprotein, K562 = assay: c-Myc oncoprotein expression, western blotting; type: cell-based
Procedure: as §1, §2, §3

NB4 = assay: Antiproliferative activity, [3H]thymidine incorporation; type: cell-based; conditions: four days
Procedure: (§4) Cellular viability was monitored by Trypan blue exclusion.
(§5) ^bproliferation was assayed by [^3H]thymidine incorporation with quadruplicate samples, as described under “Materials and methods”.

DHL-6 = assay: as above; type: cell-based; conditions: four days
Procedure: as §4, §5

[5] = test system: Peripheral Human Lymphocytes; assay: as above; type: cell-based; conditions: Lymphocyte, 72 h, three days, concanavalin A (0.4 μg/ml), read-out: Antiproliferative Activity (IC50, ng/ml)
Procedure: as §4, §5

Daudi = assay: as above; type: cell-based; conditions: four days
Procedure: as §4, §5

Kasumi-1 = assay: as above; type: cell-based; conditions: Homo sapiens, 96 h, four days, read-out: Antiproliferative Activity (IC50, ng/ml)
Procedure: as §4, §5

SUPB13 = assay: as above; type: cell-based; conditions: 96 h, four days, read-out: Antiproliferative Activity (IC50, ng/ml)
Procedure: as §4, §5

RS4;11 = assay: as above; type: cell-based; conditions: Homo sapiens, 96 h, four days, read-out: Antiproliferative Activity (IC50, ng/ml)
Procedure: as §4, §5

BV173 = assay: as above; type: cell-based; conditions: four days
Procedure: as §4, §5

U937 = assay: as above; type: cell-based; conditions: four days
Procedure: as §4, §5

HL-60 = assay: as above; type: cell-based; conditions: Homo sapiens, 96 h, four days, read-out: Antiproliferative Activity (IC50, ng/ml)
Procedure: as §4, §5

Reh = assay: as above; type: cell-based; conditions: Homo sapiens, 96 h, four days, read-out: Antiproliferative Activity (IC50, ng/ml)
Procedure: as §4, §5

## COC(=O)[C@@]12OC[C@]34[C@H]([C@@H](O)[C@@H]1O)[C@@]1(C)CC(=O)C(O)=C(C)[C@@H]1C[C@H]3OC(=O)[C@H](OC(=O)C=C(C)C)[C@@H]24 [compound 1, brusatol]
c-Myc oncoprotein, HL-60; 4 h treatment
  decrease of c-Myc protein levels: 100%
c-Myc oncoprotein, HL-60; Brusatol (25 ng/ml), 4 h
  c-Myc oncoprotein, percentage of control: 0%
c-Myc oncoprotein, HL-60; Brusatol (25 ng/ml), 24 h
  c-Myc oncoprotein, percentage of control: 17%
[1]
  inhibition at 2 µM: 70%
[2]; Brusatol (25 ng/ml), 4 h
  c-Myc oncoprotein, percentage of control: 52%
[2]; Brusatol (25 ng/ml), 24 h
  c-Myc oncoprotein, percentage of control: 41%
c-Myc oncoprotein, U937; Brusatol (25 ng/ml), 4 h
  c-Myc oncoprotein, percentage of control: 5%
c-Myc oncoprotein, U937; Brusatol (25 ng/ml), 24 h
  c-Myc oncoprotein, percentage of control: 12%
[3]; RS4,11, Brusatol (25 ng/ml), 24 h
  c-Myc oncoprotein, percentage of control: 10%
[3]; RS4;11, Brusatol (25 ng/ml), 4 h
  c-Myc oncoprotein, percentage of control: 20%
c-Myc oncoprotein, BV173; Brusatol (25 ng/ml), 4 h
  c-Myc oncoprotein, percentage of control: 22%
c-Myc oncoprotein, BV173; Brusatol (25 ng/ml), 24 h
  c-Myc oncoprotein, percentage of control: 41%
[4]; Brusatol (25 ng/ml), 4 h
  c-Myc oncoprotein, percentage of control: 66%
[4]; Brusatol (25 ng/ml), 24 h
  c-Myc oncoprotein, percentage of control: 112%
c-Myc oncoprotein, Reh; Brusatol (25 ng/ml), 4 h
  c-Myc oncoprotein, percentage of control: 66%
c-Myc oncoprotein, Reh; Brusatol (25 ng/ml), 24 h
  c-Myc oncoprotein, percentage of control: 32%
c-Myc oncoprotein, NB4; Brusatol (25 ng/ml), 4 h
  c-Myc oncoprotein, percentage of control: 0%
c-Myc oncoprotein, NB4; Brusatol (25 ng/ml), 24 h
  c-Myc oncoprotein, percentage of control: 0%
c-Myc oncoprotein, Daudi; Brusatol (25 ng/ml), 4 h
  c-Myc oncoprotein, percentage of control: 79%
c-Myc oncoprotein, Daudi; Brusatol (25 ng/ml), 24 h
  c-Myc oncoprotein, percentage of control: 10%
c-Myc oncoprotein, K562; 4 h treatment
  decrease of c-Myc protein levels: 94%
c-Myc oncoprotein, K562; Brusatol (25 ng/ml), 4 h
  c-Myc oncoprotein, percentage of control: 6%
c-Myc oncoprotein, K562; Brusatol (25 ng/ml), 24 h
  c-Myc oncoprotein, percentage of control: 13%
NB4
  Antiproliferative Activity (IC50, ng/ml): No effect
DHL-6
  Antiproliferative Activity (IC50, ng/ml): No effect
[5]
  IC50: 7.5 ± 0.3 ng/mL (≈ 0.0144 µM)
Daudi
  Antiproliferative Activity (IC50, ng/ml): No effect
Kasumi-1
  IC50: 7 ± 0.6 ng/mL (≈ 0.0134 µM)
SUPB13
  IC50: 37 ± 1.9 ng/mL (≈ 0.0711 µM)
RS4;11
  IC50: 12.5 ± 0.6 ng/mL (≈ 0.024 µM)
BV173
  Antiproliferative Activity (IC50, ng/ml): No effect
U937
  Antiproliferative Activity (IC50, ng/ml): No effect
HL-60
  IC50: 25 ± 0.5 ng/mL (≈ 0.048 µM)
Reh
  IC50: 37 ± 5.6 ng/mL (≈ 0.0711 µM)

## COC(=O)[C@@]12OC[C@]34[C@H]([C@@H](O)[C@@H]1O)[C@@]1(C)CC(=O)C(O)=C(C)[C@@H]1C[C@H]3OC(=O)[C@H](OC(=O)/C=C(\C)C(C)C)[C@@H]24 [compound 2, bruceantin]
c-Myc oncoprotein, HL-60; Bruceantin (10 ng/ml), 4 h
  c-Myc oncoprotein, percentage of control: 3%
c-Myc oncoprotein, HL-60; Bruceantin (10 ng/ml), 24 h
  c-Myc oncoprotein, percentage of control: 57%
[1]
  inhibition at 2 µM: 70%
[2]; Bruceantin (10 ng/ml), 4 h
  c-Myc oncoprotein, percentage of control: 42%
[2]; Bruceantin (10 ng/ml), 24 h
  c-Myc oncoprotein, percentage of control: 63%
c-Myc oncoprotein, U937; Bruceantin (10 ng/ml), 4 h
  c-Myc oncoprotein, percentage of control: 40%
c-Myc oncoprotein, U937; Bruceantin (10 ng/ml), 24 h
  c-Myc oncoprotein, percentage of control: 44%
[3]; RS4;11, Bruceantin (10 ng/ml), 4 h
  c-Myc oncoprotein, percentage of control: 140%
[3]; RS4;11, Bruceantin (10 ng/ml), 24 h
  c-Myc oncoprotein, percentage of control: 6%
c-Myc oncoprotein, BV173; Bruceantin (10 ng/ml), 4 h
  c-Myc oncoprotein, percentage of control: 28%
c-Myc oncoprotein, BV173; Bruceantin (10 ng/ml), 24 h
  c-Myc oncoprotein, percentage of control: 12%
[4]; Bruceantin (10 ng/ml), 4 h
  c-Myc oncoprotein, percentage of control: 70%
[4]; Bruceantin (10 ng/ml), 24 h
  c-Myc oncoprotein, percentage of control: 87%
c-Myc oncoprotein, Reh; Bruceantin (10 ng/ml), 4 h
  c-Myc oncoprotein, percentage of control: 44%
c-Myc oncoprotein, Reh; Bruceantin (10 ng/ml), 24 h
  c-Myc oncoprotein, percentage of control: 40%
c-Myc oncoprotein, NB4; Bruceantin (10 ng/ml), 4 h
  c-Myc oncoprotein, percentage of control: 0%
c-Myc oncoprotein, NB4; Bruceantin (10 ng/ml), 24 h
  c-Myc oncoprotein, percentage of control: 0%
c-Myc oncoprotein, Daudi; Bruceantin (10 ng/ml), 4 h
  c-Myc oncoprotein, percentage of control: 67%
c-Myc oncoprotein, Daudi; Bruceantin (10 ng/ml), 24 h
  c-Myc oncoprotein, percentage of control: 2%
c-Myc oncoprotein, K562; Bruceantin (10 ng/ml), 4 h
  c-Myc oncoprotein, percentage of control: 2%
c-Myc oncoprotein, K562; Bruceantin (10 ng/ml), 24 h
  c-Myc oncoprotein, percentage of control: 12%
NB4
  Antiproliferative Activity (IC50, ng/ml): No effect
DHL-6
  Antiproliferative Activity (IC50, ng/ml): No effect
[5]
  IC50: 3 ± 0.3 ng/mL (≈ 0.00547 µM)
Daudi
  Antiproliferative Activity (IC50, ng/ml): No effect
Kasumi-1
  IC50: 3.2 ± 0.1 ng/mL (≈ 0.00583 µM)
SUPB13
  IC50: 10 ± 0.5 ng/mL (≈ 0.0182 µM)
RS4;11
  IC50: 5.4 ± 0.9 ng/mL (≈ 0.00984 µM)
BV173
  Antiproliferative Activity (IC50, ng/ml): No effect
U937
  Antiproliferative Activity (IC50, ng/ml): No effect
HL-60
  IC50: 20 ± 0.1 ng/mL (≈ 0.0365 µM)
Reh
  IC50: 12.5 ± 0.8 ng/mL (≈ 0.0228 µM)
